Results taken from ChEMBL document CHEMBL4219050, “Inhibit or Evade Multidrug Resistance P-Glycoprotein in Cancer Treatment” (J Med Chem, 2018).
One block for each compound: values may come before it.

Assays:
[1] = (§1) Binding affinity to P-gp (unknown origin); parameters: species or system Homo sapiens
[2] = test system: MES-SA/Dx5; experiment: Growth inhibition of human MES-SA/Dx5 cells after 72 hrs by SRB assay; format: functional, cell-based; conditions: MES-SA/Dx5, 72 h
[3] = test system: HCT-116; experiment: Cytotoxicity against human HCT116 cells; format: functional, cell-based
[4] = species: Homo sapiens; experiment: as §1
[5] = Growth inhibition of human MDA435/LCC6 cells after 72 hrs by SRB assay; format: functional; conditions: MDA-435/LCC6, 72 h

- EC50 [1]: < 100 nM
Structure (SMILES): O[C@@H](COc1cccc2ncccc12)CN1CCN([C@@H]2c3ccccc3[C@@H]3[C@H](c4ccccc42)C3(F)F)CC1 [ZOSUQUIDAR]

Structure (SMILES): CO[C@H]1C(=O)[C@]2(C)[C@@H](OC)C[C@H]3OC[C@@]3(OC(C)=O)[C@H]2[C@H](OC(=O)c2ccccc2)[C@]2(O)C[C@H](OC(=O)[C@H](O)[C@@H](NC(=O)OC(C)(C)C)c3ccccc3)C(C)=C1C2(C)C [CABAZITAXEL]
- IC50 [2]: 15 nM

Structure (SMILES): C/C(=C\c1csc(C)n1)[C@@H]1C[C@@H]2O[C@]2(C)CCC[C@H](C)[C@H](O)[C@@H](C)C(=O)C(C)(C)[C@@H](O)CC(=O)N1 [IXABEPILONE]
- IC50 [3]: 2.6 nM

Structure (SMILES): C/C(=C\c1csc(C)n1)[C@@H]1C/C=C\C/C=C\[C@H](C)[C@H](O)[C@@H](C)C(=O)C(C)(C)[C@@H](O)CC(=O)O1
- IC50 [3]: 0.41 nM

- Activity [4]: 10 µM
Structure (SMILES): COc1ccc(CCN(C)CCCC(C#N)(c2ccc(OC)c(OC)c2)C(C)C)cc1OC (stereo not drawn)

Structure (SMILES): CC(=O)O[C@H]1C(=O)[C@@]2(C)[C@H]([C@H](OC(=O)c3ccccc3)[C@]3(O)C[C@H](OC(=O)[C@H](O)[C@@H](NC(=O)c4ccccc4)c4ccccc4)C(C)=C1C3(C)C)[C@]1(OC(C)=O)CO[C@@H]1C[C@@H]2O [PACLITAXEL]
- IC50 [5]: 346 nM
- IC50 [2]: 210 nM

- EC50 [1]: < 100 nM
Structure (SMILES): COc1cc2c(cc1OC)CN(CCc1ccc(NC(=O)c3cc(OC)c(OC)cc3NC(=O)c3cnc4ccccc4c3)cc1)CC2 [TARIQUIDAR]
